Assay results taken from patent publication US20090124555A1, “USE OF HISTOGRANIN AND HISTOGRANIN-LIKE COMPOUNDS AS INHIBITORS OF P2X7 RECEPTOR FUNCTION AND AS ANTI-ARTHRITIC AGENTS” (priority 2005, published 2009).

Columns and labels:
P2X7 receptor [1] = target: T1, P2X7 receptor (Rattus norvegicus, UniProt Q64663); experiment: ATP-induced extracellular release of IL-1.beta and IL-1.alpha from macrophages in vitro (ELISA); format: cell-based
T1 construct: Alveolar macrophages (AM) were recovered from normal rats by bronchoalveolar lavage; endogenous in cells; host or cells: primary alveolar macrophages from male Wistar rats (bronchoalveolar lavage)
T1 sequence (Q64663 1-595): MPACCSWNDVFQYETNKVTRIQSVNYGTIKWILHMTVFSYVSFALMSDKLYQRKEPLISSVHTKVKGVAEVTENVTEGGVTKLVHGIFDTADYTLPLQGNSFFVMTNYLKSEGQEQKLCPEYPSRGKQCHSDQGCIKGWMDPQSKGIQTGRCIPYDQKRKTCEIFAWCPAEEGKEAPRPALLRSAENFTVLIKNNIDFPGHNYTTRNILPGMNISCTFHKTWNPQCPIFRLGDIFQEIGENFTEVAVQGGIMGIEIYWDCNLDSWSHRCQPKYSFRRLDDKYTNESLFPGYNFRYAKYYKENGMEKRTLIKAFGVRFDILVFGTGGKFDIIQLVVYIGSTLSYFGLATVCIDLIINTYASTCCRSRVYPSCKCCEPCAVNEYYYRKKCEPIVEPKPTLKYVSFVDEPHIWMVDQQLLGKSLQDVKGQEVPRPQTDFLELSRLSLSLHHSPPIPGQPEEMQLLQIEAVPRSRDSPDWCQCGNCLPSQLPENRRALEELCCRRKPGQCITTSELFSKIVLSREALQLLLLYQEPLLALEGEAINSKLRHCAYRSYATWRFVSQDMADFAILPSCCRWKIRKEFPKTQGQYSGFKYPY
Method: Alveolar macrophages (1×10^6 cells/ml) were incubated in complete medium in 96 wells tissue culture plates overnight at 37° C. in 5% CO2. The medium was changed for fresh medium and cells were incubated with Lipopolysaccharide (LPS. 1 μg/ml) (Sigma) for 3 h followed by ATP (5 mM) or 3′-0-(4-benzoylbenzoyl ATP (BZATP) (0.5 mM. Molecular Robes) for 1 h in the presence and absence of HN compounds (10^−9M and 10^−8M) or Brilliant Blue G (BBG, 5×10^−9 M, Sigma). In some experiments, cells were pre-treated with oxidized ATP (oATP, 100 μM, Sigma) for 2 h before LPS and ATP or BzATP stimulation. In other experiments, cells were stimulated with LPS (1 μg/ml) for 3 h and subsequently with Nigericin (20 μM) for 30 min in the presence and absence of HN compounds (10^−9, 10^−8M). Controls were incubated with LPS only. After incubation, cell culture media were collected, centrifuged in a microfuge (Eppendorf) and the cell-free supernatants were collected and stored at −80° C. for cytokine measurement. Levels of immunoreactive IL-1.beta and IL-1.alpha were assayed using ELISA (R&D Systems, Minneapolis, Minn. and Biosource (Medicorp), Camarillo, Calif. respectively) performed according to the manufacturer's protocol.

P2X7 receptor [2] = target: T1, P2X7 receptor; experiment: ATP-induced membrane permeabilization and pore formation (ethidium bromide uptake) in alveolar macrophages; format: cell-based; settings: for ATP-mediated permeabilization to ethidium bromide / inhibition of ATP-induced pore formation (ethidium bromide uptake): ATP 5 mM; for ATP-mediated permeabilization to ethidium bromide / BzATP-mediated permeabilization to ethidium bromide: pre-treatment with oATP 0.1 mM 2 h or BBG 5×10^−9M 5 min; for BzATP-mediated permeabilization to ethidium bromide / inhibition of BzATP-induced pore formation: BzATP 0.5 mM; for inhibition of ATP-induced pore formation (ethidium bromide uptake): 5 min, compound 10^−9M; for inhibition of ATP-induced pore formation (ethidium bromide uptake) / inhibition of BzATP-induced pore formation: rat alveolar macrophages, FIG. 1A
Method: Alveolar macrophages (AM) were recovered from normal rats by bronchoalveolar lavage (BAL) as described previously (Lemaire (1991) Am. J. Pathol. 138:487-495). The lungs were lavaged with 7 ml-aliquots of sterile phosphate buffered saline (pH 7.4; Wisent, St. Bruno, QC), and BAL cells were obtained by centrifugation at 200×g at 4° C. for 5 minutes. The cells were resuspended in RPMI 1640 medium (Wisent, St-Bruno, QC) supplemented with 0.5% dialysed fetal bovine serum (Wisent. St-Bruno, QC), 0.005% gentamycin (Schering Canada Inc. Pointe Claire. QC) and 0.8% HEPES (Sigma Chemical Co., St-Louis, MO) which will henceforth be referred to as complete culture medium (CM).
Freshly isolated AM (1×10^5) were incubated in 200 μl complete medium in 96 wells tissue culture plates for 24 h. Following centrifugation, medium was replaced with saline solution containing 125 mM NaCl, 5 mM KCL, 1 mM MgSO4, 1 mM Na2HPO4, 5.5 mM glucose, 5 mM NaHCO3, 1 mM CaCl2 and 20 mM Hepes, pH 7.6. Ethidium bromide was added to a final concentration of 20 μM and AM were stimulated with ATP (5 mM, Sigma), 3′-O-(4-benzoylbenzoyl ATP (BzATP) (0.5 mM, Molecular Probes) or uridine 5′-triphosphate (UTP) (Sigma), at 37° C. for 5 minutes. In some experiments, cells were pre-treated with oxidized ATP (oATP, 0.1 mM, Sigma) for 2 h or Brilliant Blue G (BBG, 5×10^−9M, Sigma) for 5 minutes, or HN compounds for 5 minutes before ATP stimulation. After ATP stimulation, the plate was centrifuged (200×g, 1 minute), culture supernatants were replaced with fresh buffer and the fluorescence was analyzed using a Zeiss Axiovert S1100 TV inverted microscope equipped with a rhodamine filter and a 32× objective. Images were captured and analysed with the Northern Eclipse image analysis software. Data are expressed as percentage of cells that become permeabilized to ethidium bromide.

P2X7 receptor [3] = target: T2, P2X7 receptor (Mus musculus, UniProt Q9Z1M0); experiment: ATP-induced extracellular release of IL-1.beta, IL-1.alpha and IL-6 in vivo (peritoneal lavage of LPS-primed mice); settings: 0.1 mg and 0.3 mg i.p. 15 min before ATP, FIG. 6B
T2 construct: from tissue; host or cells: living mice; peritoneal cavity (lavage fluid analysed)
T2 sequence (Q9Z1M0 1-595): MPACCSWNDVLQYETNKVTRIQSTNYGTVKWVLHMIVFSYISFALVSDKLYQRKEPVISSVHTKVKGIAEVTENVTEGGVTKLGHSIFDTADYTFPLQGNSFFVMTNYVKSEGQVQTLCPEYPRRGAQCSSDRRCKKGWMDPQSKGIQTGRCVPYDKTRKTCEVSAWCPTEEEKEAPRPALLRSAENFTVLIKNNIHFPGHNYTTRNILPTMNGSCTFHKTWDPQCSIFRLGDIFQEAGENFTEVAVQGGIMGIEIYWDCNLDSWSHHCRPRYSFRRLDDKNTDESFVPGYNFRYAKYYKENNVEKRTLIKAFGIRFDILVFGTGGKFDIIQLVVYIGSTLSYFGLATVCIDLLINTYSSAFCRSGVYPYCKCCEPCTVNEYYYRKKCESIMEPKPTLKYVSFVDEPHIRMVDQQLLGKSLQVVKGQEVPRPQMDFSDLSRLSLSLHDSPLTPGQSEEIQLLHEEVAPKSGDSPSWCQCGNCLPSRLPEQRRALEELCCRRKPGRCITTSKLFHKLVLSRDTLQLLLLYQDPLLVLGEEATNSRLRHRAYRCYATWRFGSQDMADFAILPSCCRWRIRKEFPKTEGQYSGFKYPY
Method: Groups of mice were injected intraperitoneally (i.p.) with 50 μg of LPS. Two hours after this LPS injection, mice were injected i.p. with either PBS or ATP (5 mM, adjusted to pH 7), or with HN compounds (0.1 mg and 0.3 mg) 15 minutes before ATP injection. Mice were sacrificed 30 minutes (IL-1.beta and IL-1.alpha) or 120 minutes (IL-6) after the ATP or PBS injection and peritoneal cavities were lavaged each with 3 ml PBS. Samples of peritoneal lavages were centrifuged, cell-free supernatants were collected and tested for the presence of IL-1.beta, IL-1.alpha and IL-6 using ELISA (R&D Systems, Minneapolis, Minn., and Biosource, Camarillo, Calif., respectively).

P2X7 receptor [4] = target: T1, P2X7 receptor; experiment: ATP-induced apoptosis, cell death ELISA of cytoplasmic oligonucleosomal DNA; format: cell-based; settings: ATP 5 mM 30 min, read after 24 h; compound 10^−9M
Method: This assay using mouse monoclonal antibodies directed against DNA and histones respectively, allows the quantitative determination of mono- and oligonucleosomes in the cytoplasmic fraction of cell lysates prepared from macrophages (Li et al. (1997) Toxicol. Appl. Pharmacol. 145:331-339). Alveolar macrophages (1×10^5) were incubated in 200 μl complete medium in 96 wells tissue culture plates with ATP (5 mM) in the presence and absence of HN compounds for 30 minutes and media was replaced with fresh culture media. After 24 h, the plate was centrifuged, the culture supernatants removed and macrophages were lysed in lysis buffer for 30 min on ice and centrifuged at 14,000 rpm for 15 min at 4° C. Cytoplasmic oligonucleosomal DNA was measured in cell supernatants by ELISA.

Molecule: CCOc1ccc(Nc2ccc(/C(=C3C=C/C(=[N+](/CC)Cc4cccc(S(=O)(=O)[O-])c4)C=C/3C)c3ccc(N(CC)Cc4cccc(S(=O)(=O)[O-])c4)cc3C)cc2)cc1.[Na+] [Brilliant Blue G, reference compound]
- BzATP-induced IL-1.beta release (P2X7 receptor [1]; LPS-primed macrophages, BzATP 0.5 mM, BBG 5×10^−9M, FIG. 3A): significantly reduced
- ATP-mediated permeabilization to ethidium bromide (P2X7 receptor [2]): blocked
- BzATP-mediated permeabilization to ethidium bromide (P2X7 receptor [2]): blocked

Molecule: N=C(N)NCCC[C@@H](Nc1ccccc1NC(=O)Cc1ccc(O)cc1)C(N)=O [C-12, N-5-guanidinopentanamide-(2R)-yl-2-N-(p-hydroxphenylacetyl) phenylenediamine]
- inhibition of ATP-induced pore formation (ethidium bromide uptake) (P2X7 receptor [2]): inhibited significantly
- IL-1.beta in peritoneal lavage in response to ATP, various HN compounds (P2X7 receptor [3]): reduced levels

Molecule: N=C(N)NCCC[C@@H](Nc1ccc(C(=O)c2ccc(Cl)cc2)cc1NC(=O)Cc1ccc(O)cc1)C(N)=O [C-13, N-5-guanidinopentanamide-(2R)-yl-2-N-(p-hydroxyphenylacetyl)-4-(p-chlorobenzoyl)-phenylenediamine]
- IL-1.beta in peritoneal lavage in response to ATP, various HN compounds (P2X7 receptor [3]): reduced levels

Molecule: N=C(N)NCCC[C@H](C(N)=O)n1c(Cc2ccc(O)cc2)nc2cc(C(=O)O)ccc21 [C-15, N-5-guanidinopentanamide-(2R)-yl 2-(p-hydroxylbenzyl)5-carboxybenzimidazole]
- inhibition of extracellular IL-1.beta release, ATP stimulation (P2X7 receptor [1]; LPS 3 h then ATP 5 mM 1 h, compound 10^−9 M, FIG. 3A): significant inhibition
- inhibition of extracellular IL-1.beta release, BzATP stimulation (P2X7 receptor [1]; LPS 3 h then BzATP 0.5 mM 1 h, compound 10^−9 M, FIG. 3A): significant inhibition
- IC50 (P2X7 receptor [1]; LPS-primed rat alveolar macrophages, ATP 5 mM, FIG. 3B, read-out: half-maximal response, inhibition of ATP-induced IL-1.beta release): ~0.1 nM
- inhibition of ATP-induced IL-1.beta release, concentration-response (P2X7 receptor [1]; inhibition already seen at 10^−12M, FIG. 3B): dose-dependent
- cytoplasmic oligonucleosomal DNA in response to ATP (P2X7 receptor [4]): inhibited
- inhibition of ATP-induced pore formation, concentration-response (P2X7 receptor [2]; 10^−12 M to 10^−6 M, dose-dependent manner, FIG. 1B): inhibited
- inhibition of ATP-induced pore formation (ethidium bromide uptake) (P2X7 receptor [2]): inhibited significantly
- inhibition of BzATP-induced pore formation (P2X7 receptor [2]): inhibit
- IL-1.beta in peritoneal lavage in response to ATP, various HN compounds (P2X7 receptor [3]): reduced levels

Molecule: Nc1ncnc2c1ncn2[C@@H](C=O)O[C@@H](C=O)COP(=O)(O)OP(=O)(O)OP(=O)(O)O [oATP, oxidized ATP, reference compound]
- ATP-induced IL-1.beta release (P2X7 receptor [1]; LPS-primed macrophages, ATP 5 mM, oATP 100 μM pre-treatment 2 h, FIG. 3A): significantly reduced
- ATP-mediated permeabilization to ethidium bromide (P2X7 receptor [2]): blocked
- BzATP-mediated permeabilization to ethidium bromide (P2X7 receptor [2]): blocked

Molecule: Cyclic (-Gly-(p-chloro)Phe-Tyr-D-Arg-) (GFYR; HELM PEPTIDE1{G.[O=C([C@H](Cc1ccc(Cl)cc1)N[*:1])[*:2]].Y.[dR]}$PEPTIDE1,PEPTIDE1,1:R1-4:R2$$$V2.0; SMILES N=C(N)NCCC[C@H]1NC(=O)[C@H](Cc2ccc(O)cc2)NC(=O)[C@H](Cc2ccc(Cl)cc2)NC(=O)CNC1=O) [C-10]
- inhibition of ATP-induced pore formation (ethidium bromide uptake) (P2X7 receptor [2]): inhibited significantly
- inhibition of BzATP-induced pore formation (P2X7 receptor [2]): inhibit
- IL-1.beta in peritoneal lavage in response to ATP, various HN compounds (P2X7 receptor [3]): reduced levels

Molecule: Cyclic (-Gly-D-Gln-Tyr-D-Arg-) (GQYR; HELM PEPTIDE1{G.[dQ].Y.[dR]}$PEPTIDE1,PEPTIDE1,1:R1-4:R2$$$V2.0; SMILES N=C(N)NCCC[C@H]1NC(=O)[C@H](Cc2ccc(O)cc2)NC(=O)[C@@H](CCC(N)=O)NC(=O)CNC1=O) [C-8]
- inhibition of ATP-induced pore formation (ethidium bromide uptake) (P2X7 receptor [2]): inhibited significantly

Molecule: Cyclic (-Gly-Gln-Tyr-D-Arg-) (GQYR; HELM PEPTIDE1{G.Q.Y.[dR]}$PEPTIDE1,PEPTIDE1,1:R1-4:R2$$$V2.0; SMILES N=C(N)NCCC[C@H]1NC(=O)[C@H](Cc2ccc(O)cc2)NC(=O)[C@H](CCC(N)=O)NC(=O)CNC1=O) [C-7]
- inhibition of ATP-induced pore formation (ethidium bromide uptake) (P2X7 receptor [2]): inhibited significantly

Molecule: H-Gly-Gln-Gly-Arg-Thr-Leu-Tyr-Gly-Phe-COOH (H-GQGRTLYGF-OH) [C-3]
- cytoplasmic oligonucleosomal DNA in response to ATP (P2X7 receptor [4]): inhibited

Molecule: H-Val-Val-Tyr-Ala-Leu-Lys-Arg-Gln-Gly-[S-(3nitro-2-pyridine sulfenyl)]Cys-Thr-Leu-Tyr-Gly-Phe- [C-5]
- IL-1.beta in peritoneal lavage in response to ATP, various HN compounds (P2X7 receptor [3]): reduced levels
